Results reported in patent US9315806B2, “Massively parallel combinatorial genetics” (Massachusetts Institute of Technology, priority 2012, dated 2016).

Key:
E. coli NDM-1 strain = assay: microbe, parasite or virus in culture; type: cell-based; details: for MIC: Escherichia coli, NDM1STRAIN, read-out: NDM-1 MICs, Tested; for NDM-1 MICs, Tested: for piperacillin-tazobactam the piperacillin concentration
[1] = test system: Klebsiella pneumoniae NDM-1 clinical isolate; details: original Klebsiella pneumoniae NDM-1 isolate; cited from earlier work
[2] = test system: aTc-inducible pLtetO promoters; assay: aTc induction of GFP/mCherry pairwise combinations; type: cell-based, E. coli; details: DH5a colonies, increasing concentrations of aTc
From the text: Next, to test gene expression, a barcoded vector library of GFP and mCherry was constructed under the control of aTc-inducible pLtetO promoters with a T1+T7 fusion terminator downstream of each ORF. Each vector contained the high-copy ColE1 origin, tetR under control of a constitutive promoter, and cat conferring chloramphenicol resistance.
An insert library was generated via PCR, creating a pairwise combinatorial set as in FIG. 5 that was then transformed into DH5a cells. Twenty-four colonies were isolated and grown in increasing concentrations of aTc along with positive and negative controls (FIG. 7).

[3] = test system: Tet-ON expression system (rtTA); assay: Tet-ON induction tested with fluorescent proteins (eGFP, mCherry); type: cell-based; details: yeast strains with integrated rtTA
From the text: (§1) The repetitive Aβ or αSyn expression array was integrated in yeast genome (the W303 background) and controlled by galactose induction. FIG. 28 depicts a yeast strain generated by integrating multiple tandem copies of αSyn with a galactose (Gal)-inducible promoter. In order to minimize the size of plasmid backbone for library construction, the reverse tetracycline transactivator (rtTA), part of the Tet-ON expression system (Gossen, M. et al., Science […]:1766-9 (1995)), was integrated into both yeast strains. The Tet-ON induction was tested by using different fluorescent proteins (such as eGFP and mCherry), and consistently detected robust gene activation (about 50-fold increase) with doxycycline (Dox) treatment. […] Similarly, the rtTA was successfully integrated in wild-type strain (the BY4741 background) to study longevity.

[4] = test system: yeast strains (Aβ or αSyn expression array, W303 background); assay: Cell growth and inducible amyloid toxicity of yeast model strains; type: cell-based; details: yeast strains with integrated rtTA
From the text: as §1

Row | Compound | MIC (E. coli NDM-1 strain) [µg/mL] | NDM-1 MICs, Previously Reported [1] [µg/mL] | NDM-1 MICs, Tested (E. coli NDM-1 strain; E. coli NDM-1) [µg/mL] | other results
1 | CC1(C)S[C@@H]2[C@H](NC(=O)[C@H](N)c3ccc(O)cc3)C(=O)N2[C@H]1C(=O)O [Amoxicillin] | > 512 | – | – | –
2 | CO/N=C(\C(=O)N[C@@H]1C(=O)N2C(C(=O)O)=C(CSc3nc(=O)c(=O)[nH]n3C)CS[C@H]12)c1csc(N)n1 [Ceftriaxone] | > 128 | >32 | – | –
3 | C[C@@H](O)[C@H]1C(=O)N2C(C(=O)O)=C(SCCN=CN)C[C@H]12 [Imipenem] | > 32 | – | – | –
4 | Cc1c2c(c(O)c3c(O)cccc13)C(=O)[C@]1(O)C(O)=C(C(N)=O)C(=O)[C@@H](N(C)C)[C@@H]1C2 [aTc] | – | – | – | on/off ratios of induction [2]: 150-300 x
5 | C[C@H]1c2cccc(O)c2C(=O)C2=C(O)[C@]3(O)C(=O)C(C(N)=O)=C(O)[C@@H](N(C)C)[C@@H]3[C@@H](O)[C@@H]21 [doxycycline] | – | – | – | Gene activation (Tet-ON induction) [3]: about 50 fold; Effect on cell growth or inducible amyloid toxicity [4]: neither the integrated rtTA nor the Dox treatment affects cell growth or the inducible amyloid toxicity
6 | Colistin | – | 0.25 | <0.125 | –
7 | Gentamicin | – | >10 | >256 | –
8 | Piperacillin-Tazobactam | – | >128 | > 256 | NDM-1 MICs, Tested, tazobactam concentration (E. coli NDM-1 strain; E. coli NDM-1, tazobactam part of piperacillin-tazobactam): 32 µg/mL
